According to ChEMBL document CHEMBL1142346, “Quantitative structural-activity relationship (QSAR) study for fungicidal activities of thiazoline derivatives against rice blast” (2008):

Columns and labels:
[1] = system: Pyricularia grisea; assay: Antifungal activity against Magnaporthe grisea infected rice plant assessed as logarithm of fungal control value at 100 ppm after 5 days; assay type: functional
[2] = system: Pyricularia grisea; assay: Antifungal activity against Magnaporthe grisea infected rice plant after 5 days relative to control; assay type: functional; set-up: concentration or dose not given beside the values

Structure (SMILES)	Activity [1]	Activity [2] [%]
CCCCc1ccc(/N=c2/scc(CC(=O)Nc3ccc(OC)cc3)n2C)cc1	1.98	
COc1ccc(NC(=O)Cc2cs/c(=N/c3ccc(Cl)cc3)n2C)cc1	1.97	
CCOc1ccc(/N=c2/scc(CC(=O)Nc3ccc(OC)cc3)n2C)cc1	1.98	
CN(C(=O)Cc1cs/c(=N\c2ccc(Br)cc2)n1C)c1ccccc1		0
CN(C(=O)Cc1cs/c(=N\c2cc(Cl)cc(Cl)c2)n1C)c1ccccc1		8
COc1ccc(NC(=O)Cc2cs/c(=N/c3ccc([N+](=O)[O-])cc3)n2C)cc1	2	
CCc1ccc(NC(=O)Cc2cs/c(=N/c3ccc(Oc4ccccc4)cc3)n2C)cc1	1.98	
CN(C(=O)Cc1cs/c(=N\c2ccc(F)cc2F)n1C)c1ccccc1		0
CCCCCCc1ccc(/N=c2/scc(CC(=O)Nc3ccc(CC)cc3)n2C)cc1	2	
COc1ccc(/N=c2\scc(CC(=O)Nc3ccc(Cl)cc3)n2C)cc1		83
CCc1ccc(NC(=O)Cc2cs/c(=N\c3ccc(C#N)cc3)n2CCO)cc1		86
CCc1ccc(NC(=O)Cc2cs/c(=N\c3ccc(C#N)cc3)n2C)cc1		93
COc1ccc(NC(=O)Cc2cs/c(=N\c3ccc([N+](=O)[O-])cc3)n2CCO)cc1		20
COc1ccc(NC(=O)Cc2cs/c(=N\c3ccc([N+](=O)[O-])cc3)n2C)cc1		99
Cn1c(CC(=O)Nc2ccc(Br)cc2)cs/c1=N\c1ccc(Oc2ccccc2)cc1		98
O=C(Cc1cs/c(=N\c2ccc(Oc3ccccc3)cc2)n1C1CC1)Nc1ccc(Br)cc1		16
CN(C(=O)Cc1cs/c(=N\c2ccc(F)cc2)n1C)c1ccccc1		0
CCc1ccc(NC(=O)Cc2cs/c(=N\c3ccc(OC)cc3)n2CCO)cc1		75
CN(C(=O)Cc1cs/c(=N\c2ccc(Oc3ccccc3)cc2)n1C)c1ccccc1		0

Structure (SMILES)	Activity [1]	Activity [2] [%]
CCc1ccc(NC(=O)Cc2cs/c(=N/c3ccc(-c4ccccc4)cc3)n2C)cc1	1.99	
CCc1ccc(NC(=O)Cc2cs/c(=N/c3ccc(CC#N)cc3)n2C)cc1	2	
CCc1ccc(NC(=O)Cc2cs/c(=N/c3ccc(C(C)=O)cc3)n2C)cc1	2	
Cc1ccc(NC(=O)Cc2cs/c(=N/c3ccc(Br)cc3)n2C)cc1	1.94	
CCCCCOc1ccc(/N=c2/scc(CC(=O)Nc3ccc(CC)cc3)n2C)cc1	1.96	
CCc1ccc(NC(=O)Cc2cs/c(=N/c3ccc(I)cc3)n2C)cc1	1.97	
CC(C)c1ccc(NC(=O)Cc2cs/c(=N/c3ccc(C(F)(F)F)cc3)n2C)cc1	1.8	
CN(C(=O)Cc1cs/c(=N\c2ccc(C#N)cc2)n1C)c1ccccc1		25
COc1ccc(NC(=O)Cc2cs/c(=N/c3ccc(SC)cc3)n2C)cc1	1.96	
CCc1ccc(NC(=O)Cc2cs/c(=N/c3ccc(Cl)cc3)n2C)cc1	2	
CCc1ccc(NC(=O)Cc2cs/c(=N/c3ccc(C#N)cc3)n2C)cc1	1.92	
CCc1ccc(NC(=O)Cc2cs/c(=N\c3ccc(OC)cc3)n2C)cc1	1.99	98
CN(C(=O)Cc1cs/c(=N\c2ccc(C(F)(F)F)cc2)n1C)c1ccccc1		0
COc1ccc(/N=c2\scc(CC(=O)Nc3ccc(Cl)cc3)n2CCO)cc1		10
CN(C(=O)Cc1cs/c(=N\c2cccc(F)c2)n1C)c1ccccc1		0
COc1ccc(NC(=O)Cc2cs/c(=N/c3ccc(OC(F)(F)F)cc3)n2C)cc1	1.99	
CCCCc1ccc(/N=c2/scc(CC(=O)Nc3ccc(CC)cc3)n2C)cc1	1.99	
CCc1ccc(NC(=O)Cc2cs/c(=N/c3ccc(OC(F)(F)F)cc3)n2C)cc1 (stereo in doubt; 5)	1.99	
CCc1ccc(NC(=O)Cc2cs/c(=N/c3ccc(OC(F)(F)F)cc3)n2C)cc1 (stereo in doubt; 8)	1.93	
